From PubChem BioAssay AID1159564 (GlaxoSmithKline (GSK), 2015) come the findings set out here.

The assay relates to L. donovani-infected THP-1 macrophages, intracellular amastigote imaging. The experiment in a line: antileishmanial activity in infected THP-1 macrophages – imaging, THP-1 host macrophages, host toxicity (AID 1159564).
Setting [1] is: measured here: THP-1 host cell toxicity.
The mark [2] stands for this setting: measured here: amastigotes per macrophage.

SMILES strings stand for the structures. Activity calls are given as the source filed them. The rule behind the calls is not given here.

What is called IC50 is the point on the concentration scale where inhibition reaches its midpoint.

As for `COc1cc(-c2nc(N3CCOCC3)sc2-c2ccnc(NC3CCOCC3)n2)ccc1Cl`, the IC50 was > 50 µM (inactive). The molecule also returned a half-maximal inhibitory concentration (IC50) under setting [1] of over 50 µM. This molecule also gave an IC50 under setting [2] of 0.02 µM.

Take `CNC(=O)C1Cc2ccccc2N1C(=O)Cc1ccccc1` (stereo unspecified): the IC50 was > 50 µM (inactive). The half-inhibitory concentration (IC50) under setting [1] was over 50 µM. Under setting [2], this molecule came in with an IC50 of over 50 µM.

Regarding `Cc1nc(-c2ccncc2)ncc1C(C)NC(=O)c1ccc(Cl)s1` (stereo unspecified), the IC50 was > 50 µM (inactive). In addition, under setting [1], the IC50 is over 50 µM. The concentration for half-maximal inhibition (IC50) under setting [2] was over 50 µM.

On to `O=C(CSc1ccc(-c2ccccn2)nn1)Nc1ccc(Cl)cc1`, for which the IC50 is > 50 µM (inactive). The molecule further returned a 50% inhibitory concentration (IC50) under setting [1] of over 50 µM. The molecule further yielded an IC50 under setting [2] of over 50 µM.

With `Cc1ccc(S(=O)(=O)Nc2ccc(CN3CCN(C(=O)c4cccc(C)c4)CC3)cc2)cc1`, the 50% inhibitory concentration (IC50) is 40 µM. The molecule further showed an IC50 under setting [1] of 40 µM. This molecule had an IC50 under setting [2] of 32 µM.

`c1ccc(CCNCc2cncc3nc(-c4cnccn4)n(C4CCCCC4)c23)cc1`: the IC50 was > 50 µM (inactive). The molecule also yielded a 50% inhibitory concentration (IC50) under setting [1] of over 50 µM. Under setting [2], this molecule showed a 50% inhibitory concentration (IC50) of over 50 µM.

Take `O=C(c1cccc(Nc2ncc(-c3ccc4c(c3)OCO4)cn2)c1)N1CCOCC1`: the concentration for half-maximal inhibition (IC50) was 4 µM. Under setting [1], the 50% inhibitory concentration (IC50) was 63 µM. Under setting [2], this molecule displayed a concentration for half-maximal inhibition (IC50) of 1.6 µM.

Take `CCN(CC)c1ncc(C(=O)c2ccc([N+](=O)[O-])o2)s1`: the IC50 is 10 µM. The same molecule had a half-maximal inhibitory concentration (IC50) under setting [1] of 6.3 µM. Further, the half-inhibitory concentration (IC50) under setting [2] came out at 10 µM.

For `COc1cccc(C(=O)[C@H]2C[C@@H]2CN(Cc2cccnc2)Cc2cccnc2)c1`, the IC50 is > 50 µM (inactive). The IC50 under setting [1] was determined as 40 µM. Under setting [2], this molecule had a half-inhibitory concentration (IC50) of 7.9 µM.

Regarding `Cc1ccc2c(c1)SC(C(=O)Nc1n[nH]c(-c3ccccn3)n1)C2` (stereo unspecified), the IC50 is 4 µM. The molecule further came in with a half-maximal inhibitory concentration (IC50) under setting [1] of 25 µM. The molecule further had an IC50 under setting [2] of 2.5 µM.

Consider `C[C@@H](Oc1cc(-n2cnc3ccc(CC(O)CO)cc32)sc1C(N)=O)c1ccccc1Cl` (stereo partly specified), for which the IC50 was 40 µM. The same molecule registered a concentration for half-maximal inhibition (IC50) under setting [1] of 40 µM. Further, under setting [2], the half-inhibitory concentration (IC50) turned out to be 32 µM.

Turning to `CC(=O)Nc1ccc(-c2cnc(N)c(-c3nc4ccc(F)cc4[nH]3)c2)cc1`, the 50% inhibitory concentration (IC50) is 1 µM. The molecule also came in with an IC50 under setting [1] of 7.9 µM. The molecule also had a half-maximal inhibitory concentration (IC50) under setting [2] of 0.5 µM.

`NC(=O)c1ccccc1Nc1nc(NC2CCCCC2)nc2[nH]ccc12`: the IC50 was 13 µM. Besides, the IC50 under setting [1] stood at 10 µM. Further, the 50% inhibitory concentration (IC50) under setting [2] was determined as 13 µM.

On to `COc1ccc([N+](=O)[O-])cc1NC(=O)Nc1cccc(Cl)c1`, for which the IC50 is > 50 µM (inactive). The molecule also gave an IC50 under setting [1] of 50 µM. For the same molecule, the half-maximal inhibitory concentration (IC50) under setting [2] is over 50 µM.

On to `COc1cc2c(cc1OC)[C@H]1[C@@H](C)c3ccc(OC)c(OC)c3CN1CC2`, for which the half-maximal inhibitory concentration (IC50) was 20 µM. Under setting [1], this molecule had an IC50 of over 50 µM. For the same molecule, the IC50 under setting [2] was 16 µM.

`COc1cc(C(C)C)c(S(C)(=O)=O)cc1C(=O)N1CCN(c2ccccc2Cl)CC1`: the IC50 was 16 µM. Under setting [1], the 50% inhibitory concentration (IC50) is 16 µM. The IC50 under setting [2] stood at 13 µM.

With `Clc1ccc(CN2CCN(C3=NCCN3)CC2)cc1Cl`, the IC50 is > 50 µM (inactive). Under setting [1], this molecule had a half-maximal inhibitory concentration (IC50) of over 50 µM. The IC50 under setting [2] was over 50 µM.

Regarding `O=C(NC(c1ccc(Cl)cc1)c1cnccn1)C1CCN(C(=O)Nc2cccc(C(F)(F)F)c2)CC1` (stereo unspecified), the IC50 was > 50 µM (inactive). The half-inhibitory concentration (IC50) under setting [1] was 40 µM. Further, the IC50 under setting [2] is over 50 µM.

For `O=C(COc1ncnc2cc([N+](=O)[O-])ccc12)NC(=O)NC1CCCCC1`, the IC50 was > 50 µM (inactive). Under setting [1], the IC50 is over 50 µM. Under setting [2], this molecule yielded an IC50 of over 50 µM.

Consider `CCn1nccc1CN(C)C(=O)C=Cc1ccc(Cl)cc1`, for which the IC50 is > 50 µM (inactive). Besides, the half-inhibitory concentration (IC50) under setting [1] was over 50 µM. The IC50 under setting [2] was over 50 µM.

For `c1ccc(Nc2nc3ccccc3[nH]2)nc1`, the IC50 is 7.9 µM. The same molecule registered an IC50 under setting [1] of 25 µM. Under setting [2], this molecule returned a half-inhibitory concentration (IC50) of 7.9 µM.

For `CN(CCOc1ccc(Cl)cc1)Cc1nc(N)nc(N(C)C)n1`, the IC50 is 7.9 µM. The same molecule came in with a 50% inhibitory concentration (IC50) under setting [1] of over 50 µM. For the same molecule, the 50% inhibitory concentration (IC50) under setting [2] was 5 µM.

As for `Cc1cc(C)n(-c2nc(NC(C)C)nc(NC(C)(C)C)n2)n1`, the 50% inhibitory concentration (IC50) was 5 µM. For the same molecule, the half-maximal inhibitory concentration (IC50) under setting [1] stood at 6.3 µM. Further, the half-inhibitory concentration (IC50) under setting [2] came out at 4 µM.

As for `NS(=O)(=O)c1ccc(CNC(=O)c2ccc([N+](=O)[O-])s2)cc1`, the IC50 is 25 µM. The IC50 under setting [1] is 40 µM. In addition, under setting [2], the IC50 worked out at 13 µM.

`CCOc1cnn(C)c(=O)c1Nc1ccc(C(=O)NCc2ccc(F)cc2)cc1`: the IC50 is > 50 µM (inactive). The molecule also yielded an IC50 under setting [1] of 32 µM. Under setting [2], this molecule had an IC50 of over 50 µM.

As for `c1ccc2c(CCOc3nccnc3-c3ccncc3)c[nH]c2c1`, the IC50 was > 50 µM (inactive). The molecule also had an IC50 under setting [1] of 20 µM. Further, the concentration for half-maximal inhibition (IC50) under setting [2] was determined as 20 µM.

On to `COc1ccc2ncc(=O)n(CCN3CC[C@H](NCc4ncc(Cl)c5[nH]ncc45)[C@H](O)C3)c2n1`, for which the IC50 was > 50 µM (inactive). Under setting [1], this molecule returned an IC50 of over 50 µM. Under setting [2], this molecule registered a half-maximal inhibitory concentration (IC50) of over 50 µM.
